What was measured:
Test in all cases: relative viability (nuclei count vs DMSO), 5 days (fraction); higher = more cells survive
[1] = compound: C1CC(C2=C(C1)C3=C(N2)C=CC(=C3)Cl)C(=O)N [Selisistat] + CC(=O)c1c(C)c2cnc(Nc3ccc(N4CCNCC4)cn3)nc2n(C2CCCC2)c1=O [Palbociclib] (partner 0.5 µM)
Procedure, shortened: (§1)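 Dosing by pin tool came one day after lung cancer cell lines were seeded in 1536-well plates, using either one drug or a fixed anchor-drug dose plus five library-drug doses (not always all listed) in √10 steps. After 5 days, nuclei were counted on 4× images. Relative viability is treated-well nuclei count divided by vehicle-well nuclei count, and values are medians of duplicate plates.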

[2] = compound: c1ccc2c(CCNc3ccc(Nc4ccncc4)cc3)c[nH]c2c1 [Serdemetan] + N=C(N)NC(=N)NCCc1ccccc1 [Phenformin] (partner 250 µM)
Procedure, shortened: as §1

[3] = compound: c1ccc2c(CCNc3ccc(Nc4ccncc4)cc3)c[nH]c2c1 [Serdemetan] + Nc1ncn([C@H]2C[C@H](O)[C@@H](CO)O2)c(=O)n1 [Decitabine] (partner 2 µM)
Procedure, shortened: as §1

[4] = compound: c1ccc2c(CCNc3ccc(Nc4ccncc4)cc3)c[nH]c2c1 [Serdemetan] + O=C(CCCCCCC(=O)Nc1ccccc1)NO [Vorinostat] (partner 1 µM)
Procedure, shortened: as §1

## UMC-11
[1]; first compound 0.4 µM
  relative viability: 0.348
[1]; first compound 1.265 µM
  relative viability: 0.34
[1]; first compound 4 µM
  relative viability: 0.299
[1]; first compound 12.65 µM
  relative viability: 0.319
[1]; first compound 40 µM
  relative viability: 0.349
[2]; first compound 0.04 µM
  relative viability: 0.312
[2]; first compound 0.1265 µM
  relative viability: 0.31
[2]; first compound 4 µM
  relative viability: 0.321
[3]; first compound 0.04 µM
  relative viability: 0.564
[3]; first compound 0.1265 µM
  relative viability: 0.387
[3]; first compound 0.4 µM
  relative viability: 0.685
[3]; first compound 1.265 µM
  relative viability: 0.649
[3]; first compound 4 µM
  relative viability: 0.532
[4]; first compound 0.04 µM
  relative viability: 0.412
[4]; first compound 0.1265 µM
  relative viability: 0.445
[4]; first compound 0.4 µM
  relative viability: 0.37
[4]; first compound 1.265 µM
  relative viability: 0.268
[4]; first compound 4 µM
  relative viability: 0.335

Source: the supplement of paper PMC10307832
